The text below walks through data of PubChem BioAssay AID743476 (The Scripps Research Institute Molecular Screening Center, 2014).

The structures appear in SMILES notation. Activity calls are given as the source filed them. The rule behind the calls is not given here.

This test relates to CCHF-vOTU. The test can be described thus: PubChem AID 743476. To be noted: Recombinant CCHFV vOTU, PEP-AMC fluorescence cleavage, with PEP-AMC substrate, active compounds read high.

`Cc1ccccc1-c1cc2c(nn1)-c1ccccc1C2=O`: the inhibition by setting is: (Assay 1, at 0.46 µM) 27.6%; (Assay 2, at 0.46 µM) 24.5%.

Turning to `O=C(O)CSc1cc(NS(=O)(=O)c2ccc(Cl)cc2)c2ccccc2c1O`, the inhibition (Assay 1, at 5 µM) was 6.76% (inactive); the inhibition (Assay 2, at 5 µM) is 8.14% (inactive); the inhibition (Assay 3, at 10 µM) is 7.8% (inactive).

In the case of `Cc1ccc(N2C(=O)[C@@H]3[C@H](C2=O)C2c4ccccc4C=CN2[C@@H]3C(=O)c2ccco2)cc1` (some centres undefined), the inhibition reads like this: (Assay 1, at 4.21 µM) 8.15% (inactive); (Assay 2, at 4.21 µM) 18.6% (inactive); (Assay 3, at 8.42 µM) 44.7%.

For the compound `COC1=C(N)C(=O)c2nc(C)ccc2C1=O`, the inhibition is, setting by setting: (Assay 1, at 1.37 µM) 16.7% (inactive); (Assay 2, at 1.37 µM) 50.9%.

Turning to `COc1ccccc1NC(=O)COC(=O)c1ccc([N+](=O)[O-])s1`, the inhibition was -1.05% (inactive) (Assay 1, at 9.94 µM); 9.34% (inactive) (Assay 2, at 9.94 µM); 20% (Assay 3, at 19.88 µM).

As for `NS(=O)(=O)c1ccc(NC(=O)COC(=O)c2ccc([N+](=O)[O-])s2)cc1`, the inhibition reads like this: (Assay 1, at 8.31 µM) 70.6%; (Assay 2, at 8.31 µM) 24.6%; (Assay 3, at 16.62 µM) 23.1%.

As to `O=C1OC(Nc2cc(Br)cc3cccnc23)c2ccccc21` (centres undefined), the inhibition reads like this: (Assay 1, at 5.23 µM) 21.7%; (Assay 2, at 5.23 µM) 16.9% (inactive); (Assay 3, at 10.46 µM) 10.9% (inactive).

For the compound `O=C(c1ccco1)[C@@H]1[C@@H]2C(=O)N(c3ccc(Br)cc3)C(=O)[C@@H]2C2c3ccccc3C=CN21` (some centres undefined), the inhibition is -13.1% (inactive) (Assay 1, at 5.26 µM) and 37.6% (Assay 2, at 5.26 µM).

Turning to `COC(CNC(=O)c1ccc2c3c(onc13)-c1ccccc1C2=O)OC`, the inhibition runs as follows: (Assay 1, at 3.49 µM) 16.6% (inactive); (Assay 2, at 3.49 µM) 12.4% (inactive); (Assay 3, at 6.98 µM) 35.5%.

As to `O=C(COC(=O)c1ccc([N+](=O)[O-])s1)Nc1ncc(C(F)(F)F)cc1Cl`, the inhibition was 23.2% (Assay 1, at 8.84 µM); 19.8% (inactive) (Assay 2, at 8.84 µM); 30.5% (Assay 3, at 17.68 µM).

On to `O=C(OCc1nnc(-c2ccccc2)o1)c1ccc([N+](=O)[O-])s1`, for which the inhibition was 3.79% (inactive) (Assay 1, at 7.52 µM); -3.16% (inactive) (Assay 2, at 7.52 µM); 25% (Assay 3, at 15.04 µM).

With `Cc1ccc(NC2=CC(=O)C(=O)c3ccccc32)cc1`, the inhibition runs as follows: (Assay 1, at 7.14 µM) 20%; (Assay 2, at 7.14 µM) 51.9%.

Turning to `CCOC(=O)N=Nc1c2ccccc2c2nc3no[nH]c3nc12`, the inhibition (Assay 1, at 2.35 µM) was 8.81% (inactive); the inhibition (Assay 2, at 2.35 µM) is 13.6% (inactive); the inhibition (Assay 3, at 4.7 µM) was 25.3%.

In the case of `O=C1C=C(Nc2ccccc2)c2ccccc2C1=O`, the inhibition is 22.4% (Assay 1, at 6.87 µM) and 52.9% (Assay 2, at 6.87 µM).

With `Cc1ccc2c(c1C)-c1c(ccc(C)c1C)C(=O)C2=O`, the inhibition by setting is: (Assay 1, at 7.79 µM) -37.1% (inactive); (Assay 2, at 7.79 µM) 18% (inactive); (Assay 3, at 15.58 µM) 38.4%.

`CCOC(=O)C1=C(COC(=O)c2ccc([N+](=O)[O-])s2)NC(=O)NC1C` (centres undefined): the inhibition was 5.42% (inactive) (Assay 1, at 7.84 µM); 9.9% (inactive) (Assay 2, at 7.84 µM); 6% (inactive) (Assay 3, at 15.68 µM).

With `CC1COCC(C)N1C1=C(Cl)C(=O)c2ccccc2C1=O` (centres undefined), the inhibition reads like this: (Assay 1, at 5.07 µM) 0.67% (inactive); (Assay 2, at 5.07 µM) 14% (inactive); (Assay 3, at 10.14 µM) 17.6% (inactive).

As to `CCC(CNc1cc(OC)cc2cccnc12)NC1CCCCC1` (centres undefined), the inhibition (Assay 1, at 6.32 µM) was -27% (inactive); the inhibition (Assay 2, at 6.32 µM) was 13.6% (inactive); the inhibition (Assay 3, at 12.64 µM) was 52.4%.

Turning to `COc1cc(Br)c(C(=O)c2nccc3cc(OC)c(OC)cc23)cc1OC`, the inhibition (Assay 1, at 0.27 µM) was 31.9% and the inhibition (Assay 2, at 0.27 µM) is 25.2%.

With `CCc1cc[n+](C2=C(NS(=O)(=O)c3cccs3)C(=O)c3ccccc3C2=O)cc1`, the inhibition (Assay 1, at 4.39 µM) was 13.7% (inactive); the inhibition (Assay 2, at 4.39 µM) was 18.6% (inactive); the inhibition (Assay 3, at 8.78 µM) is 37.9%.

In the case of `O=c1[nH]c(Nc2ccccc2)cc2cc(Br)ccc12`, the inhibition by setting is: (Assay 2, at 1 µM) 34.1%; (Assay 3, at 2 µM) 42.6%.

For the compound `O=C(COC(=O)c1ccc([N+](=O)[O-])s1)NCc1ccc(F)cc1`, the inhibition is, setting by setting: (Assay 1, at 8.08 µM) -23.4% (inactive); (Assay 2, at 8.08 µM) 7.84% (inactive); (Assay 3, at 2.56 µM) 11.4% (inactive).
